Measurements from patent US5187165A, “Memory enhancing and analgesic 1,2,3a,8,8a-hexahydro-3a,8(and 1,3a,8)-di(and tri)methylpyrrolo[2,3-b]indoles” (priority 1988, dated 1993).
Counter-ions that a name gives are not always drawn. Like-named read-outs stand apart in the source and are kept apart here.

How the values were obtained:
[1] = system: scopolamine-induced memory deficit; assay: Dark Avoidance Assay (scopolamine induced memory deficit reversal); assay type: in vivo, mice; conditions: Mus musculus, sc, 24 h, read-out: % of Animals with Scopolamine Induced Memory Deficit Reversal
Experimental: In this assay mice are tested for their ability to remember an unpleasant stimulus for a period of 24 hours. A mouse is placed in a chamber that contains a dark compartment; a strong incandescent light drives it to the dark compartment, where an electric shock is administered through metal plates on the floor. The animal is removed from the testing apparatus and tested again, 24 hours later, for the ability to remember the electric shock.
If scopolamine, an anticholinergic that is known to cause memory impairment, is administered before an animal's initial exposure to the test chamber, the animal re-enters the dark compartment shortly after being placed in the test chamber 24 hours later. This effect of scopolamine is blocked by an active test compound, resulting in a greater interval before re-entry into the dark compartment.
The results for an active compound are expressed as the percent of a group of animals in which the effect of scopolamine is blocked, as manifested by an increased interval between being placed in the test chamber and re-entering the dark compartment.

[2] = system: pressure stress by artery clip on tail; assay: Modified Haffner's Analgesia; assay type: in vivo, mice; conditions: sc; for ANALGESIC ACTIVITY (ED50), Modified Haffner's Analgesia: mice, peak time of drug activity; for ED50: Mus musculus, read-out: ANALGESIC ACTIVITY (ED50), Modified Haffner's Analgesia, mice, sc, peak time of drug activity
Text: The latter assay is used to evaluate analgesic activity by measuring drug-induced changes in the sensitivity of mice to pressure stress by placing an artery clip (21/2 inches long) on their tail. The procedure used is a modification of the test developed by Haffner, Dtsch. Med. Wschr., 55, 731 (1929), and it is described below.
Male mice (Charles River, CD-1) from 18-30 grams are used for the test. An artery clip is applied to the root of the tail of a mouse (approximately 1/2 inch from the body) to induce pain. The animal quickly responds to this noxious stimuli by biting the clip or the location of the clip. This reaction time, the interval between stimulus onset and response, is recorded in 1/10-second increments by a stop watch.
For a time response, the screening dose (25 mg/kg) is administered subcutaneously (10 ml/kg) to the animal receiving food and water ad libitum before testing. Animals receiving the compound orally are fasted 18-24 hours before drug administration. Drug to be tested is prepared with distilled water and if insoluble, one drop of a surfactant is added.
Twenty-eight animals (seven/group) are administered the drug 15, 30, 45 and 60 minutes prior to testing.
The cut-off time (CO) is determined by taking the (x) average +(3) standard (SD) deviations of the combined response latencies of the control mice in all time periods.
Any reaction time, in subsequent drug tests, which is greater than the CO (for the same time period) therefore exceeds 99% of a normal Gaussian distribution and is called "positive response" indicative of analgesic activity. A time response indicates the period of greatest analgesic effect after dosing. The ED50 is determined at the peak time of drug activity. A minimum of three dose groups are used. ED50 's are calculated using computer analysis.

[3] = system: 2-phenyl-1,4-benzoquinone-induced writhing; assay: 2-phenyl-1,4-benzoquinone-induced writhing (PQW) test; assay type: in vivo; conditions: mice; for ED50: Mus musculus, read-out: ANALGESIC ACTIVITY (ED50), PQW
Text: Compounds I of the present invention are also useful as analgesic agents due to their ability to alleviate pain in mammals. […] Exptl. Biol. Med., 95,729 (1957)] and in modified Haffner's analgesia.

[4] = target: T1, butyrylcholinesterase (Serum AChE) (Homo sapiens, UniProt P06276); assay: In Vitro Inhibition of Butyrylcholinesterase Activity in Human Serum; assay type: biochemical
T1 construct: A vial of lyophilized human serum; purchased Biodynamics, Houston, Tex; (Precilip); host or cells: lyophilized human serum, reconstituted in water; enzyme not purified
T1 sequence (P06276 29-602): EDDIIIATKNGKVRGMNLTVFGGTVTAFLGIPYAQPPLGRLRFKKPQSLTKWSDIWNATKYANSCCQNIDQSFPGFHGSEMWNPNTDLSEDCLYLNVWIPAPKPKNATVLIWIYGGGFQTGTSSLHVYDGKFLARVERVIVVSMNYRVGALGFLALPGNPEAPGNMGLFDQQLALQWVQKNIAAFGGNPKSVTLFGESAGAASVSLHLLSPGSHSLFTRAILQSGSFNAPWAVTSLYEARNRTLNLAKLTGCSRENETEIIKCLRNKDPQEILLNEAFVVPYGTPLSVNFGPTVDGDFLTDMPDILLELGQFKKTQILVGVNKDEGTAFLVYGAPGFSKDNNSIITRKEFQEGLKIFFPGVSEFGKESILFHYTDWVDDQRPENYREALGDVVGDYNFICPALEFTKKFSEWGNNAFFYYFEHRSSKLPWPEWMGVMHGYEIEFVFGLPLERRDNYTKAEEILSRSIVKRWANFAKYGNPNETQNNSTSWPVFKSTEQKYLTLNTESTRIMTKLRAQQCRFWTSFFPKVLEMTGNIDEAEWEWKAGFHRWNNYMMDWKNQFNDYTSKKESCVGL
Text: (§1) Cholinesterases are found throughout the body, both in the brain and in serum. However, only brain acetylcholinesterase (AChE) distribution is correlated with central cholinergic innervation. […] We have determined in vitro inhibition of acetylcholinesterase activity in rat striatum and in vitro inhibition of butrylcholinesterase activity in human serum according to the methods described below.
This assay can be used in conjunction with the acetylcholinesterase assay to determine the enzyme selectivity of various chloinesterase inhibitors.
Butyrylcholinesterase (BChE), which is sometimes called pseudocholinesterase, preferentially hydrolyzes butyrylcholine. This enzyme is found in the highest amounts in serum, but its physiological role is not known.
(§2) (a) 9.9 mg 5,5-dithiobisnitrobenzoic acid (DTNB) (0.25 mM)
(b) 113 mg s-butyrylthiochloine chloride (5 mM)
(§3) (c) q.s. to 100 ml with 0.05M phosphate buffer, pH 7.2 (reagent 1)
A vial of lyophilized human serum (Precilip, Biodynamics, Houston, Tex. is reconstituted in 3 ml of distilled water. A 10 microliter aliquot of this suspension is added to 90 microliter of the vehicle or various concentrations of the test drug and preincubated for 10 minutes at room temperature.
Substantially the same procedure is used as described above in Section C of the Procedure used for determining the inhibition of acetylcholinsterase activity.

[5] = target: T2, acetylcholinesterase (Brain AChE) (Rattus norvegicus, UniProt P37136); assay: In Vitro Inhibition of Acetylcholinesterase Activity in Rat Striatum; assay type: biochemical
T2 construct: corpora striata dissected free, weighed and homogenized in 19 volumes; from tissue; host or cells: corpora striata of male Wistar rats, crude homogenate in phosphate buffer
T2 sequence (P37136 32-614): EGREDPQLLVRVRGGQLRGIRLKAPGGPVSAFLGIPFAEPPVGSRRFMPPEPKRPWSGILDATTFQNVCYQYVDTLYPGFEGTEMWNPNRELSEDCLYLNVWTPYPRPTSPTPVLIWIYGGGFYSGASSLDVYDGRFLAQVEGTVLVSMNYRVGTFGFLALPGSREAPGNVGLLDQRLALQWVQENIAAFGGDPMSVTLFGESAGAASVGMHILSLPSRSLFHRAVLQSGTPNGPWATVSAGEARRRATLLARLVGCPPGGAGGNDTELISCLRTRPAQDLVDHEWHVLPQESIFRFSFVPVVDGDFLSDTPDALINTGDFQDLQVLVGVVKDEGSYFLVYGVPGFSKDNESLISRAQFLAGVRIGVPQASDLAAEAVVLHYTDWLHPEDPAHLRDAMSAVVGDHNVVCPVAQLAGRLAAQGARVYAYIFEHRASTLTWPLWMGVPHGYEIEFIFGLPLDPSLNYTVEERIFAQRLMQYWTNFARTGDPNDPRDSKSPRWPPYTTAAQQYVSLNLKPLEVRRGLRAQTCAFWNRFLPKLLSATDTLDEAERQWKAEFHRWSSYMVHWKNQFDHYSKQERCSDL
Text: as §1
The method described below was used in this invention for assaying cholinesterase activity. This is a modification of the method of Ellman et al., Biochem. Pharmacol. 7, 98 (1961).
1. 0.05M Phosphate buffer, pH 7.2
as §2
(b) 99 mg s-acetylthiocholine chloride (5 mM)
as §3
Male Wistar rats are decapitated, brains rapidly removed, corpora striata dissected free, weighed and homogenized in 19 volumes (approximately 7 mg protein/ml) of 0.05M phosphate buffer, pH 7.2 using a Potter-Elvehjem homogenizer. A 50 microliter aliquot of the homogenate is added to 50 microliter vehicle of various concentrations of the test drug and preincubated for 10 minutes at room temperature.
1. For routine IC50 determinations the Abbott Bichromatic Analyzer, ABA-100, is used to determine acetylcholinesterase activity.
Incubation temperature: 30° C.
Following the 10 minute preincubation of the tissue (enzyme) with the inhibitor, the samples are mixed with the substrate chromogen buffer by the ABA-100. Using the indicated instrument settings the ABA-100 automatically reads the color reaction and prints out the results in enzyme units after 15 minutes.
2. The enzyme activity can also be measured with Gilford 250 spectrophotometer. This method is used for more accurate kinetic measurments.
Reagents are added to the reference and sample side of a split curvette as follows.
The uninhibited activity of the enzyme (tissue homogenate) is first determined. Test drugs are made up in a suitable solvent and added in suitable dilutions to the buffer vehicle. The reaction rate is determined by the slope of the recorded absorbance change. The actual rate (moles/liter/min) can be calculated as described in the following formula
rate(moles/liter/min)=slope/(1.36×10^4).

[6] = system: norepinephrine uptake; assay type: biochemical; conditions: rat brain synaptosomes, 50 nM 3H-NE, 37° C., 5 min; read-out: Reuptake Inhibition of neurotransmitters, Norepinephrine

Compound `CCN(CC)C(=O)Oc1cc2c(cc1Br)N(C)[C@H]1N(C)CC[C@@]21C` [(3aS-cis)-6-bromo-1,2,3,3a,8,8a-hexahydro-1,3a,8-trimethylpyrrolo[2,3-b]indol-5-ol, N,N-diethyl carbamate ester] has a responders at 5 mg/kg [1] of 40%.
With `CN1CC[C@@]2(C)c3cc(O)cc(Br)c3N(C)[C@@H]12` (relative stereo) [7-bromo-1,2,3,3a,8,8a-hexahydro-1,3a,8-trimethylpyrrolo[2,3-] [7-Bromo-1,2,3,3a,8,8a-hexahydro-1,3a,8-trimethylpyrrolo[2,3-b]indol-5-ol] the “ANALGESIC ACTIVITY (ED50), Modified Haffner's Analgesia” value [2] was 0.22 mg/kg, the “ANALGESIC ACTIVITY (ED50), PQW” value ([3]; po) was 0.33 mg/kg and the “ANALGESIC ACTIVITY (ED50), PQW” value ([3]; sc) was 0.17 mg/kg.
Work on `CN1CC[C@@]2(C)c3cc(OC(=O)NC45CC6CC(CC(C6)C4)C5)ccc3N(C)[C@@H]12` [(3aS-cis)-1,2,3,3a,8,8a-Hexahydro-1,3a,8-trimethylpyrrolo[2,3-b]indol-5-ol,(1-adamantyl)carbamate ester] yielded an IC50 [4] of over 100 µM, an IC50 [5] of 3.05 µM and a responders at 1.25 mg/kg [1] of 27%.
Work on `CC(=O)Oc1cc([N+](=O)[O-])c2c(c1)[C@]1(C)CCN(C)[C@@H]1N2C` [(3aS-cis)-1,2,3,3a,8,8a-Hexahydro-1,3a,8-trimethyl-7-nitropyrrolo[2,3-b]indol-5-ol acetate fumarate] yielded an ED50 [2] of 3.6 mg/kg and an ED50 ([3]; sc, sc) of 1.5 mg/kg.
Work on `CN1CC[C@@]2(C)c3cc(OC(=O)NC4CCCCCCCCCCC4)ccc3N(C)[C@@H]12` [(3aS-cis)-1,2,3,3a,8,8a-Hexahydro-1,3a,8-trimethylpyrrolo[2,3-b]indol-5-ol,cyclododecyl carbamate ester] yielded an IC50 [4] of over 1000 µM and an IC50 [5] of 0.41 µM.
`CN1CC[C@@]2(C)c3cc(O)ccc3N(C)[C@@H]12` [eseroline salicylate, reference compound] showed an ED50 [2] of 0.18 mg/kg and an ED50 ([3]; sc, sc) of 0.52 mg/kg.
With `CN1CC[C@@]2(C)c3cc(O)cc(Br)c3N(C)[C@@H]12` (relative stereo) [(3aS-cis)-7-bromo-1,2,3,3a,8,8a-hexahydro-1,3a,8-trimethylpy] [(3aS-cis)-7-Bromo-1,2,3,3a, 8,8a-hexahydro-1,3a,8-trimethylpyrrolo[2,3-b]indol-5-ol] the “ANALGESIC ACTIVITY (ED50), Modified Haffner's Analgesia” value [2] was 0.55 mg/kg and the “ANALGESIC ACTIVITY (ED50), PQW” value ([3]; sc) was 0.041 mg/kg.
`Cc1cc(O)cc2c1N(C)[C@H]1N(C)CC[C@@]21C` (relative stereo) [(3aS-cis)-1,2,3,3a,8,8a-Hexahydro-1,3a,7,8-tetramethylpyrrolo[2,3-b]indol-5-ol] showed an ED50 [2] of 0.31 mg/kg and an ED50 ([3]; sc, sc) of 0.22 mg/kg.
Work on `CCN1CCC2(C)c3cc(O)cc(Br)c3N(C)C12` (centres unmarked) [7-Bromo-1-ethyl-1,2,3,3a,8,8a-hexahydro-3a,8-dimethylpyrrolo[2,3-b]indol-5-ol salicylate] yielded an ED50 [2] of 1.94 mg/kg and an ED50 ([3]; sc, sc) of 2.52 mg/kg.
`CN1CC[C@@]2(C)c3cc(OC(=O)N4CC5CCC(CC5)C4)ccc3N(C)[C@@H]12` [(3aS-cis)-1,2,3,3a,8,8a-Hexahydro-1,3a,8-trimethylpyrrolo[2,3-b]indol-5-ol,[3-[3-azabicyclo[3.2.2]nonyl]]carbamate ester fumarate] showed an IC50 [4] of over 1000 µM, an IC50 [5] of 0.84 µM and a responders at 5 mg/kg [1] of 33%.
In the case of `CN1CC[C@@]2(C)c3cc(OC(=O)C(C)(C)C)cc(Br)c3N(C)[C@@H]12.Cl` (relative stereo) [(3aS-cis)-7-Bromo-1,2,3,3a,8,8a-hexahydro-1,3a,8-trimethylpyrrolo[2,3-b]indol-5-ol, trimethylacetate hydrochloride], the ED50 [2] is reported as 0.6 mg/kg and the ED50 ([3]; sc, sc) is reported as 0.8 mg/kg.
`CN1CC[C@@]2(C)c3cc(O)cc(Br)c3N(C)[C@@H]12` (relative stereo) [(3aS-cis)-7-Bromo-1,2,3,3a, 8,8a-hexahydro-1,3a,8-trimethylpyrrolo[2,3-b]indol-5-ol] gave an ED50 ([3]; po, po) of 0.36 mg/kg.
`CCC1CCC(NC(=O)Oc2ccc3c(c2)[C@]2(C)CCN(C)[C@@H]2N3C)CC1` (stereo partly drawn) [(3aS-cis)-1,2,3,3a,8,8a-Hexahydro-1,3a,8-trimethylpyrrolo[2,3-b]indol-5-ol,4-ethylcyclohexyl carbamate ester] was tested, and the IC50 [6] was 2.6 µM.
Work on `CNC(=O)Oc1cc(C)c2c(c1)[C@]1(C)CCN(C)[C@@H]1N2C` [(3aS-cis)-1,2,3,3a,8,8a-Hexahydro-1,3a,7,8-tetramethylpyrrolo[2,3-b]indol-5-ol, methyl carbamate ester] yielded an IC50 [5] of 0.012 µM.
`C=CCN1CCC2(C)c3cc(O)ccc3N(C)C12` (centres unmarked) [1,2,3,3a,8,8a-Hexahydro-3a,8-dimethyl-1-(2-propenyl)-pyrrolo[2,3-b]indol-5-ol salicylate] was tested, and the ED50 [2] was 2.56 mg/kg and the ED50 ([3]; sc, sc) was 3.9 mg/kg.
